From US20150157036A1, “Processed Cheese With Natural Antibacterial And Antimycotic Components And Method Of Manufacturing” (KRAFT FOODS GROUP BRANDS LLC, priority 2013, published 2015)
Where “and” joins values, the source holds several entries; their conditions need not be identical. Equal entries are not always repeated.

Columns and labels:
[1] = system: mold cocktail of Phoma spp., Geotrichum spp., Cladosporium spp., and Penicillium spp.; experiment: Mold challenge study of processed cheese slices inoculated with a mold cocktail; assay type: cell-based
Procedure: In some approaches, the processed cheese includes an amount of natural antimycotic effective to prevent mold growth for at least about three months, in another aspect at least about four months, in another aspect at least about five months, in another aspect at least about six months, and in yet another aspect at least about seven months, when the processed cheese is stored at about 1 to about 10° C. The efficacy of the natamycin in the processed cheese product can be determined by conducting a mold challenge study, where samples of the processed cheese are inoculated with a known quantity of mold spores, such as 90 cfu/g or 500 cfu/g, and inspecting the samples for visible mold growth during storage at 40 to 45° F.
Natamycin (Natamax SF from Danisco) was incorporated into processed cheese (prior to the cooking step) at concentrations of 7 ppm and 15 ppm. The processed cheese was then submitted to a mold challenge study. The processed cheese was inoculated with a mold cocktail (spores in liquid media) of Phoma spp., Geotrichum spp., Cladosporium spp., and Penicillium spp. (which represent common types of mold) at 90 spores per 19 gram slice. The samples are inoculated by spreading the cocktail on top of cheese slices. A control was not inoculated. […] The detectable level of natamycin was determined by HPLC. […]

[2] = Detectable level of natamycin in processed cheese by HPLC during storage; assay type: physicochemical; details: for detectable natamycin concentration in the product: by six months, stored at 45° F.; for natamycin in processed cheese, on average: three days after producing the processed cheese, four samples
Procedure: Natamycin (Natamax SF from Danisco) was incorporated into processed cheese (prior to the cooking step) at 15 ppm. Cultured dairy component containing nisin was incorporated into all products at 8 percent based on the total weight of the processed cheese. Samples of the processed cheese were inoculated at 100 cfu/g and 500 cfu/g. The detectable level of natamycin was determined by HPLC.

mold = experiment: Shelf life of processed cheese slices, visible mold during storage; assay type: cell-based; details: processed cheese slices containing about 4.8 ppm natamycin; stored at 45° F.; control without natamycin showed visible mold at three months
Text: Processed cheese slices were produced containing about 4.8 ppm natamycin (Natamax SF from Danisco).

[3] = average of samples, dosage level 15 ppm, storage at 45° F.
[4] = dosage level 15 ppm before cooking, 8 percent cultured dairy component containing nisin, storage at 45° F., HPLC, single samples

detectable natamycin concentration in the product ([2]; 7 ppm sample, HPLC): 0.62 ppm
detectable natamycin concentration in the product ([2]; 15 ppm sample, HPLC): 4.89 ppm
Detected Natamycin Concentration (ppm) after Four Months, average [2, 3]: Average = 3.39 ppm
Detected Natamycin Concentration (ppm) after One Week, average [2, 3]: Average = 4.68 ppm
Detected Natamycin Concentration (ppm) after Two Months, average [2, 3]: Average = 5.93 ppm
Detected Natamycin Concentration (ppm) after One Week [2, 4]: 4.61 ppm and 4.63 ppm and 4.80 ppm
natamycin in processed cheese, on average ([2]; starting with 10 ppm, 8 percent cultured dairy component containing nisin): 2.8 ppm
natamycin in processed cheese, on average ([2]; starting with 15 ppm, 8 percent cultured dairy component containing nisin): 4.9 ppm
Compound: C[C@@H]1C/C=C/C=C/C=C/C=C/[C@H](O[C@@H]2O[C@H](C)[C@@H](O)[C@H](N)[C@@H]2O)C[C@@H]2O[C@](O)(C[C@@H](O)C[C@H]3O[C@@H]3/C=C/C(=O)O1)C[C@H](O)[C@H]2C(=O)O [Natamycin, natamycin]
shelf life relative to control ([1]; 10 ppm and 15 ppm natamycin plus 8 percent cultured dairy component containing nisin, inoculated with 500 cfu/g or 9,500 spores per slice): almost double that of control
extension of shelf life versus control that lacked mold inhibitor ([1]; processed cheese with 7 ppm or 15 ppm natamycin added before cooking, 90 spores per 19 gram slice, stored at 45° F.): at least six months longer than a control
Detected Natamycin Concentration (ppm) after Four Months [2, 4]: 3.07 ppm and 3.39 ppm and 3.64 ppm and 2.97 ppm and 3.37 ppm and 3.28 ppm and 3.14 ppm
Detected Natamycin Concentration (ppm) after Three Months [2, 4]: 6.87 ppm and 6.34 ppm and 7.46 ppm and 6.13 ppm and 6.84 ppm and 6.78 ppm and 7.36 ppm
Detected Natamycin Concentration (ppm) after Two Months [2, 4]: 6.73 ppm and 4.62 ppm and 6.32 ppm and 5.34 ppm and 5.91 ppm and 6.81 ppm and 5.67 ppm
change of the detectable quantity of natamycin during storage ([2]; processed cheese with natamycin and cultured dairy component, HPLC): increase in months 2 and 3 of storage and then decrease in month 4
visible mold at five months of shelf life (mold): no visible mold
